Laboratory results as given in patent US20160250213A1, “FORMULATIONS OF AZAINDOLE COMPOUNDS” (priority 2013, published 2016).
“And” between values parts separate entries of the source, which are not always exact repeats. Identical values can stand only once. Like-named read-outs stand apart in the source and are kept apart here. Marks after values point to notes of the source that are not given here.

Experiments:
A/Swine/1976/31 (H1N1) = assay: microbe, parasite or virus in culture; assay type: cell-based; details: Influenza A virus, H1N1, MDCK, in Sus scrofa, read-out: Cell Protection Assay EC50 ± SD
[1] = test system: influenza A/Wisconsin/67/2005 (H3N2) challenge strain virus; assay type: in vivo, humans (healthy volunteers)
A/Hawaii/2/2006 (H3N2) = assay: microbe, parasite or virus in culture; assay type: cell-based; details: Influenza A virus, MDCK, read-out: Cell Protection Assay EC50 ± SD
[2] = single doses up to 1600 mg and multiple doses up to 800 mg daily for 10 days
A/Georgia/17/2006 (H1N1) = assay: microbe, parasite or virus in culture; assay type: cell-based; details: Influenza A virus, MDCK, read-out: Cell Protection Assay EC50 ± SD
A/Hong Kong/8/68 (H3N2) = assay: microbe, parasite or virus in culture; assay type: cell-based; details: Influenza A virus, MDCK, read-out: Cell Protection Assay EC50 ± SD
[3] = test system: influenza A/PR/8/34 (5×10^3 TCID50); set-up: species or system mice; details: mouse, in vivo
influenza A = test system: influenza A; set-up: species or system mice; details: mouse, in vivo
influenza A virus = assay type: in vivo, mice; details: mouse, in vivo
[4] = test system: A/Virginia/ATCC3/2009 (H1N1); assay: microbe, parasite or virus in culture; assay type: cell-based; details: Influenza A virus, MDCK, read-out: Cell Protection Assay EC50 ± SD
[5] = test system: Influenza A/Vietnam/1203/2004 (H5N1) virus; set-up: species or system BALB/c mice; details: mouse, in vivo
[6] = test system: influenza A/Wisconsin/67/2005 (H3N2) challenge strain virus; assay type: in vivo, humans (healthy volunteers); remark: listed apart in the source
[7] = test system: A/Swine/Iowa/15/30 (H1N1); assay: microbe, parasite or virus in culture; assay type: cell-based; details: Influenza A virus, H1N1, MDCK, in Sus scrofa, read-out: Cell Protection Assay EC50 ± SD
A/Aichi/2/68 (H3N2) = assay: microbe, parasite or virus in culture; assay type: cell-based; details: Influenza A virus, MDCK, read-out: Cell Protection Assay EC50 ± SD
A/FM/1/47 (H1N1) = assay: microbe, parasite or virus in culture; assay type: cell-based; details: Influenza A virus, MDCK, read-out: Cell Protection Assay EC50 ± SD
B/Lee/40 = assay: microbe, parasite or virus in culture; assay type: cell-based; details: Influenza B virus, MDCK, read-out: Cell Protection Assay EC50 ± SD
[8] = test system: A/Chelyabinsk/1/2006 (H1N1); assay: microbe, parasite or virus in culture; assay type: cell-based; details: Influenza A virus, MDCK, read-out: Cell Protection Assay EC50 ± SD
[9] = 900 mg Day 1, 600 mg qd Days 2-5, N = 19
[10] = 1200 mg Day 1, 600 mg qd Days 2-5, N = 18
[11] = pooled Compound (1) groups, N = 72
[12] = 900 mg Day 1, 600 mg Days 2-5, […]
[13] = 1200 mg Day 1, 600 mg Days 2-5, […]
[14] = pooled Compound (1) dose groups, […]
[15] = 100 mg QD 5 days, FA set N = 12
[16] = 400 mg QD 5 days, FA set N = 12
[17] = 900 mg Day 1, 600 mg Days 2-5, FA set N = 14
[18] = 1200 mg Day 1, 600 mg Days 2-5, FA set N = 14
[19] = pooled Compound (1) dose groups, FA set N = 52

O=C(O)[C@H]1C2CCC(CC2)C1Nc1nc(-c2c[nH]c3ncc(F)cc23)ncc1F (stereo partly shown) [Compound (1)]
EC50 (A/Swine/1976/31 (H1N1)): 470 ± 110 pM
tolerability (100 mg to 1200/600 mg QD, five daily doses): well tolerated
Adverse event: Alanine aminotransferase increased (100 mg, N = 16): 3 (18.8) n(%)
Adverse event: Aspartate aminotransferase increased (100 mg, N = 16): 1 (6.3) n(%)
Adverse event: Blood phosphorus decreased (100 mg, N = 16): 3 (18.8) n(%)
Adverse event: Dermatitis contact (100 mg, N = 16): 3 (18.8) n(%)
Adverse event: Headache (100 mg, N = 16): 1 (6.3) n(%)
Adverse event: Influenza-like illness (100 mg, N = 16): 8 (50.0) n(%)
Adverse event: Malaise (100 mg, N = 16): 2 (12.5) n(%)
Adverse event: Nasal congestion (100 mg, N = 16): 0 n(%)
Adverse event: Nausea (100 mg, N = 16): 0 n(%)
Adverse event: Oropharylngeal pain (100 mg, N = 16): 2 (12.5) n(%)
Adverse event: Rhinorrhea (100 mg, N = 16): 0 n(%)
Adverse event: Spirometry abnormal (100 mg, N = 16): 2 (12.5) n(%)
Adverse event: Tension Headache (100 mg, N = 16): 0 n(%)
Adverse event: Alanine aminotransferase increased (400 mg, N = 19): 1 (5.3) n(%)
Adverse event: Aspartate aminotransferase increased (400 mg, N = 19): 1 (5.3) n(%)
Adverse event: Blood phosphorus decreased (400 mg, N = 19): 0 n(%)
Adverse event: Dermatitis contact (400 mg, N = 19): 0 n(%)
Adverse event: Headache (400 mg, N = 19): 4 (21.1) n(%)
Adverse event: Influenza-like illness (400 mg, N = 19): 10 (52.6) n(%)
Adverse event: Malaise (400 mg, N = 19): 0 n(%)
Adverse event: Nasal congestion (400 mg, N = 19): 0 n(%)
Adverse event: Nausea (400 mg, N = 19): 2 (10.5) n(%)
Adverse event: Oropharylngeal pain (400 mg, N = 19): 0 n(%)
Adverse event: Rhinorrhea (400 mg, N = 19): 2 (10.5) n(%)
Adverse event: Spirometry abnormal (400 mg, N = 19): 4 (21.1) n(%)
Adverse event: Tension Headache (400 mg, N = 19): 2 (10.5) n(%)
Adverse event: Alanine aminotransferase increased [9]: 0 n(%)
Adverse event: Aspartate aminotransferase increased [9]: 0 n(%)
Adverse event: Blood phosphorus decreased [9]: 6 (31.6) n(%)
Adverse event: Dermatitis contact [9]: 0 n(%)
Adverse event: Headache [9]: 0 n(%)
Adverse event: Influenza-like illness [9]: 9 (47.4) n(%)
Adverse event: Malaise [9]: 0 n(%)
Adverse event: Nasal congestion [9]: 0 n(%)
Adverse event: Nausea [9]: 1 (5.3) n(%)
Adverse event: Oropharylngeal pain [9]: 1 (5.3) n(%)
Adverse event: Rhinorrhea [9]: 0 n(%)
Adverse event: Spirometry abnormal [9]: 0 n(%)
Adverse event: Tension Headache [9]: 1 (5.3) n(%)
Adverse event: Alanine aminotransferase increased [10]: 6 (33.3) n(%)
Adverse event: Aspartate aminotransferase increased [10]: 2 (11.1) n(%)
Adverse event: Blood phosphorus decreased [10]: 4 (22.2) n(%)
Adverse event: Dermatitis contact [10]: 0 n(%)
Adverse event: Headache [10]: 2 (11.1) n(%)
Adverse event: Influenza-like illness [10]: 7 (38.9) n(%)
Adverse event: Malaise [10]: 0 n(%)
Adverse event: Nasal congestion [10]: 1 (5.6) n(%)
Adverse event: Nausea [10]: 0 n(%)
Adverse event: Oropharylngeal pain [10]: 0 n(%)
Adverse event: Rhinorrhea [10]: 1 (5.6) n(%)
Adverse event: Spirometry abnormal [10]: 4 (22.2) n(%)
Adverse event: Tension Headache [10]: 0 n(%)
incidence of decreased blood phosphorus level (Compound (1) groups): 18.1%
incidence of nasal congestion (Compound (1) groups): 1.4%
incidence of rhinorrhea (Compound (1) groups): 4.2%
Adverse event: Alanine aminotransferase increased [11]: 10 (13.9) n(%)
Adverse event: Aspartate aminotransferase increased [11]: 4 (5.6) n(%)
Adverse event: Blood phosphorus decreased [11]: 13 (18.1) n(%)
Adverse event: Dermatitis contact [11]: 3 (4.2) n(%)
Adverse event: Headache [11]: 7 (9.7) n(%)
Adverse event: Influenza-like illness [11]: 34 (47.2) n(%)
Adverse event: Malaise [11]: 2 (2.8) n(%)
Adverse event: Nasal congestion [11]: 1 (1.4) n(%)
Adverse event: Nausea [11]: 3 (4.2) n(%)
Adverse event: Oropharylngeal pain [11]: 3 (4.2) n(%)
Adverse event: Rhinorrhea [11]: 3 (4.2) n(%)
Adverse event: Spirometry abnormal [11]: 10 (13.9) n(%)
Adverse event: Tension Headache [11]: 3 (4.2) n(%)
Serology, Sero-conversion (%) [1, 12]: (68%)
Serology, Sero-conversion, n/N [1, 12]: 13/19
Serology, Sero-conversion (%) [1, 13]: (67%)
Serology, Sero-conversion, n/N [1, 13]: 12/18
Serology, Sero-conversion, n/N ([1]; in vivo): 11/16 and 9/19
Serology, Sero-conversion (%) [1, 14]: (63%)
Serology, Sero-conversion, n/N [1, 14]: 45/72
EC50 (A/Hawaii/2/2006 (H3N2)): 1400 ± 910 pM
liver function abnormalities, serum phosphate decreases [2]: Neither liver function abnormalities nor serum phosphate decreases were observed
EC50 (A/Georgia/17/2006 (H1N1)): 130 ± 48 pM
EC50 (A/Hong Kong/8/68 (H3N2)): 600 ± 110 pM
Survival Rate ([3]; 0.1 mg/kg): 12.5
Survival Rate ([3]; 0.3 mg/kg): 44.4
Survival Rate ([3]; 1 mg/kg): 100
Log10 Reduction vs. Vehicle (influenza A): −1.08 Log10
Log10 Reduction vs. Vehicle (influenza A; 3 mg/kg): −1.04 Log10
Lung Viral Titer (influenza A; 3 mg/kg): 5.24 *** Log10 TCID50
Lung Viral Titer (influenza A; 10 mg/kg): 5.20*** Log10 TCID50
Lung Viral Titer (influenza A; 30 mg/kg): 3.95 Log10 TCID50 and 4.53*** Log10 TCID50
survival (influenza A virus): 2/8
EC50 [4]: 1900 ± 3200 pM
MDD ± SD (mean day of death of mice that died on or before day 21) [5]: >21
Mean Lung Parameters (Day 6): Virus Titer [5]: 3.75 ± 0.94 Log 10 CCID50/g
Survivors/Total [5]: 10/10
Viral Shedding by qRT-PCR, AUC, median [6, 15]: 6.05 log10 copies/mL*Day
Viral Shedding by qRT-PCR, Duration, median [6, 15]: 0.96 days
Viral Shedding by qRT-PCR, AUC, median [6, 16]: 4.90 log10 copies/mL*Day
Viral Shedding by qRT-PCR, Duration, median [6, 16]: 1.36 days
Viral Shedding by qRT-PCR, AUC, median [6, 17]: 10.65 log10 copies/mL*Day
Viral Shedding by qRT-PCR, Duration, median [6, 17]: 2.39 days
Viral Shedding by qRT-PCR, AUC, median [6, 18]: 0.45 log10 copies/mL*Day
Viral Shedding by qRT-PCR, Duration, median [6, 18]: 0.00 days
Viral Shedding by qRT-PCR, AUC, median [6, 19]: 3.45 log10 copies/mL*Day
Viral Shedding by qRT-PCR, Duration, median [6, 19]: 0.71 days
EC50 [7]: 650 ± 82 pM
EC50 (A/Aichi/2/68 (H3N2)): 1400 ± 1100 pM
EC50 (A/FM/1/47 (H1N1)): 570 ± 36 pM
EC50 (B/Lee/40): > 10000 pM
EC50 [8]: 700 ± 490 pM
